What was measured:
Type in all cases: in vivo, rat
[1] = tested on: proliferating (BrdU+) cells present in the hippocampal dentate gyrus; assay: Neurogenesis: BrdU and BrdU/NeuN immunohistochemical labeling after head-only irradiation; details: irradiated rats, 30 mg/kg oral, 30 days
Experimental: (§1) Ten (10) week old Long Evans (LE) rats (Crl:LE, Strain Code: 006; Charles River) were divided randomly into three groups (n=16/group):
(§2) Radiation recipients having administered drug (IRR+NSI-189) received the compound of formula (2) wherein R^1=amyl as the phosphate salt by oral gavage. Drug was administered at 30 mg/kg (amount based exclusive of phosphate) and 27 Gy head-only fractionated radiation administered as in the IRR group. Rats in this group were administered NSI-189 in sterile vehicle (normal saline) as a 1× solution (15 mg/ml) starting 24 hours after the final dose of radiation and daily thereafter for 30 days. Sterile gavage needles with protected tips were used and the drug administered for less than a minute.
For IRR and IRR+NSI-189, rats were anesthetized [2.5% (vol/vol) isoflurane/oxygen], placed ventrally on the treatment table (X-RAD 320 irradiator; Precision X-Ray) without restraint, and positioned under a collimated (1.0 cm^2 diameter) beam for head-only radiation delivered at a dose rate of 1.0 Gy/min. Fractionation of 27 Gy was delivered over 3 separate doses of […] that were administered 48 hours apart. […]
Remaining animals that were not used for Golgi-Cox staining (n=12/group) were given a barbiturate overdose and were perfused/fixated using 4% paraformaldehyde and tissue removed. Tissue was analyzed by immunohistochemistry.

Long Evans (LE) rats [2] = assay: Novel Object Recognition (NOR) spontaneous exploration task after head-only irradiation
Text: as §1
(§3) Controls (Con) received oral gavage (vehicle only) and sham radiation.
(§4) Radiation recipients with no drug (IRR) administered oral gavage (vehicle only) and 27 Gy head-only fractionated radiation.
as §2, with “minute. […]” for “minute.”
(§5) Rats were subjected to cognitive testing using spontaneous exploration tasks outlined below 1 week after termination of oral gavage (5 weeks post irradiation) over the course of 3 weeks. […] All data were collected using Noldus Ethovision v8.5 and later hand scored by a technician blind to the treatment groups. […]

Long Evans (LE) rats [3] = assay: Object in Place (OiP) spontaneous exploration task after head-only irradiation
Text: as §1, §3, §4
as §2, with “minute. […]” for “minute.”
as §5

Long Evans (LE) rats [4] = assay: Temporal Order (TO) spontaneous exploration task after head-only irradiation
Text: as §1, §3, §4
as §2, with “minute. […]” for “minute.”
as §5

Long Evans (LE) rats [5] = assay: Novel Place Recognition (NPR) spontaneous exploration task after head-only irradiation
Text: as §1, §3, §4
as §2, with “minute. […]” for “minute.”
as §5

[6] = IRR lower than IRR+NSI-189 (P<0.05), 30 mg/kg oral, 30 days, 27 Gy

For `CC(C)CCNc1ncccc1C(=O)N1CCN(Cc2ccccc2)CC1` [NSI-189], the “yield of BrdU+/NeuN+ cells (mature neurons) in the hippocampal dentate gyrus” value ([1]; dual immunohistochemical labeling) was “returned the yield of BrdU^+/NeuN^+ cells to pre-irradiation levels”, the “number of proliferating (BrdU+) cells in the hippocampal dentate gyrus” value ([1]; radiation alone gave significant (P<0.05) reduction) was “returned to pre-irradiation levels” and the “NOR exploration ratio of IRR+NSI-189 compared with Con (statistics, in words)” value (Long Evans (LE) rats [2]; IRR lower than IRR+NSI-189 (P<0.01), 30 mg/kg oral, 30 days, 27 Gy) was “statistically indistinguishable”. The “Exploration Ratio mean (NOR)” value (Long Evans (LE) rats [2]; rats, 27 Gy head-only fractionated radiation, 30 mg/kg oral gavage daily for 30 days, 5 min retention interval) was “mean = 71.28”, the “OiP exploration ratio of IRR+NSI-189 compared with Con (statistics, in words)” value (Long Evans (LE) rats [3]; [6]) was “showed no significant differences” and the “Exploration Ratio mean (OiP)” value (Long Evans (LE) rats [3]; rats, 27 Gy head-only fractionated radiation, 30 mg/kg oral gavage daily for 30 days) was “mean = 64.60”. For the same compound, the “TO exploration ratio of IRR+NSI-189 compared with Con (statistics, in words)” value (Long Evans (LE) rats [4]; 30 mg/kg oral, 30 days, 27 Gy) was “did not differ statistically”, the “Exploration Ratio mean (TO)” value (Long Evans (LE) rats [4]; rats, 27 Gy head-only fractionated radiation, 30 mg/kg oral gavage daily for 30 days, object sets 3 hours apart, test after additional 1 hour) was “mean = 67.95” and the “NPR exploration ratio of IRR+NSI-189 compared with Con (statistics, in words)” value (Long Evans (LE) rats [5]; [6]) was “did not differ significantly from Con”. The “Exploration Ratio mean (NPR)” value (Long Evans (LE) rats [5]; rats, 27 Gy head-only fractionated radiation, 30 mg/kg oral gavage daily for 30 days starting 24 hours after final radiation dose, tested 5 weeks post irradiation, 1 hour retention) was “mean = 60.69”.

Source: US20180104240A1, “AMELIORATION OF RADIATION-INDUCED COGNITIVE DYSFUNCTION” (NEURALSTEM, INC., priority 2016, published 2018)
